Assay type in all cases: physicochemical
A short description of data set [1]: solubility of Drug 6 salt forms. The settings on record: Drug 6 salts.
Data set [2] can be described thus: microcentrifuge dissolution, sertraline lactate (Drug 2) with polymer. The method, then: For these tests, 1.8 mg sertraline lactate was added to 0.9 mL HPLC water in each of six microcentrifuge tubes. For Control 4, 0.9 mL 2×PBS (PBS solution with 2 times the standard buffer salt concentration), adjusted to pH 8.0, was added to Tubes 1 and 2. For Example 10, 0.9 mL 2×PBS (pH 8.0) containing 3.6 mg of HPMCAS-MF was added to Tubes 3 and 4. For Example 11, 0.9 mL 2×PBS (pH 8.0) containing 3.6 mg of CAT was added to Tubes 5 and 6.
Dissolution performance was measured at 37° C. using the microcentrifuge method described in Example 1. Samples were taken after 4, 10, 20, 40, 90, and 180 minutes as described in Example 1. Samples were diluted in 35% H2O/65% ACN (vol./vol.), and analyzed by HPLC. The mobile phase was 35 vol. % 0.025 M triethylamine with 0.05M acetic acid in HPLC water in ACN. The analytical column used was a Phenomenex ODS 20, and the drug concentration was determined using diode array detection at 230 nm.

A short description of data set [3]: microcentrifuge dissolution, ziprasidone mesylate (Drug 3) with polymer. The conditions noted are these: for [Drug 3]: PBS, 37° C. As to the method: Ziprasidone mesylate (Drug 3) is the soluble salt form of the antipsychotic drug ziprasidone. For these tests, 0.5 mg drug was added to each of 8 microcentrifuge tubes. For Control 5, no concentration-enhancing polymer was added to Tubes 1 and 2. For Example 12, 1.0 mg of CAT was added to Tubes 3 and 4. For Example 13, 1.0 mg of CAP (NF grade from Eastman Fine Chemical of Kingsport, Tenn.) was added to Tubes 5 and 6. For Example 14, 1.0 mg HPMCP (NF grade from Eastman Chemical Company) was added to Tubes 7 and 8.
Dissolution performance was measured at 37° C. using the microcentrifuge method described in Example 1. For each test, 0.616 mg of Drug 3 was added to the microcentrifuge tube. At time 0, 1.8 mL PBS was added to each of the tubes. Drug concentration was measured using HPLC, with a mobile phase of 60 vol. % 0.02 M KH2PO4, pH 3.0 in ACN, and diode array detection at 254 nm.

Data set [4] in a line: solubility of sertraline forms. The settings on record: for solubility: sertraline forms, pH 3, expressed as the free base.
Data set [5] can be described thus: microcentrifuge dissolution, amorphous Drug 1 with varying ratios of HPMCAS-MF. The settings on record: 15 mg amorphous Drug 1 in 1.5 mL PBS, 37° C. The method, then: Amorphous Drug 1 (15 mg) was added to microcentrifuge tubes containing 1.5 mL of PBS solution and varying concentrations of HPMCAS-MF. Dissolution performance was measured at 37° C. using the microcentrifuge method described in Example 1. Drug concentration was measured at 1.5 hours and at 20 hours for each polymer concentration.

Data set [6] in a line: Cmax of Drug 1 forms in MFD solution. The settings on record: pH 6.5 MFD solution.
Data set [7] can be described thus: solubility of Drug 4 polymorphs in water. The settings on record: Drug 4 mesylate polymorph.

In brackets after ≈: the same amount, converted by molar mass. Where a name gives a salt, the structure may show the parent alone.

As for “4-[3-[4-(2-methylimidazol-1-yl) phenylthio] phenyl]-3,4,5,6-tetrahydro-2H-pyran-4-carboxamide hemifumarate [Drug 6 hydrochloride salt]”, the solubility in data set [1] (pH 4) is given as 0.37 mgA/mL; in data set [1] (pH 7) it was 0.0009 mgA/mL.

In the case of “4-[3-[4-(2-methylimidazol-1-yl) phenylthio] phenyl]-3,4,5,6-tetrahydro-2H-pyran-4-carboxamide hemifumarate [Drug 6]”, the solubility in data set [1] (pH 4, listed as Drug 6 mesylate salt) amounted to 3.7 mgA/mL; in data set [1] (pH 7, listed as Drug 6 mesylate salt) it was 0.0042 mgA/mL.

A word on the Cmax: it is the peak of the concentration-time curve. `CN[C@H]1CC[C@@H](c2ccc(Cl)c(Cl)c2)c2ccccc21` [Control 4]: the “[Drug 2]” value stood at 89 µg/mL in data set [2] (10 mins); 72 µg/mL in data set [2] (20 mins); 67 µg/mL in data set [2] (40 mins); 63 µg/mL in data set [2] (90 mins); 60 µg/mL in data set [2] (180 mins); 101 µg/mL in data set [2] (PBS (2x PBS pH 8.0 added), 37° C., 4 mins). Further, the AUC180 in data set [2] (Drug 2 dissolution) was 11,700 min * μg/mL. In data set [2] (Drug 2 dissolution), this molecule registered a Cmax of 101 µg/mL.

Molecule `CS(=O)(=O)O.O=C1Cc2cc(CCN3CCN(c4nsc5ccccc45)CC3)c(Cl)cc2N1` [Control 5] yielded an AUC180 in data set [3] (Drug 3 dissolution in PBS) of 1000 µg·min/mL. This molecule also returned a Cmax in data set [3] (Drug 3 dissolution in PBS) of 11 µg/mL. Moreover, the “[Drug 3]” value in data set [3] (10 mins) worked out at 3 µg/mL; in data set [3] (20 mins), 11 µg/mL; in data set [3] (40 mins), 6 µg/mL; in data set [3] (90 mins), 7 µg/mL; in data set [3] (180 mins), 1 µg/mL.

`CN[C@H]1CC[C@@H](c2ccc(Cl)c(Cl)c2)c2ccccc21` [Drug 2, sertraline lactate] yielded a solubility in data set [4] of 256000 µg/mL.

Turning to `CN[C@H]1CC[C@@H](c2ccc(Cl)c(Cl)c2)c2ccccc21` [Drug 5, sertraline HCl], the solubility in data set [4] (aqueous solution, aqueous buffer, read-out: solubility) worked out at 3000 µg/mL. The solubility thermodynamic in data set [4] (distilled water, aqueous buffer, thermodynamic from solid, sertraline hydrochloride with or without citric acid, pH 3, read-out: equilibrium solubility) was determined as 3000 µg/mL.

`O=C(N[C@@H](Cc1ccccc1)[C@@H](O)C(=O)N1C[C@@H](O)[C@@H](O)C1)c1cc2cc(Cl)ccc2[nH]1` [amorphous Drug 1, 5-chloro-1H-indole-2-carboxylic acid [(1 S)-benzyl-3-((3R, 4S)-dihydroxypyrroldin-1-yl-)-(2R)-hydroxy-3-oxypropyl] amide]: the “[Drug] 1.5 hr.” value in data set [5] worked out at 224 µg/mL. This molecule gave a maximum concentration (Cmax) in data set [6] (listed as amorphous form) of 270 µg/mL.

For the molecule `O=C(N[C@@H](Cc1ccccc1)[C@@H](O)C(=O)N1C[C@@H](O)[C@@H](O)C1)c1cc2cc(Cl)ccc2[nH]1` [crystalline Drug 1, 5-chloro-1H-indole-2-carboxylic acid [(1 S)-benzyl-3-((3R, 4S)-dihydroxypyrroldin-1-yl-)-(2R)-hydroxy-3-oxypropyl] amide], the Cmax in data set [6] (listed as crystalline form) amounted to 160 µg/mL.

Consider `C#Cc1cccc(Nc2ncnc3cc(OCCOC)c(OCCOC)cc23)c1` [“A” form, [6,7-Bis(2-methoxy-ethoxy)-quinazolin-4-yl]-(3-ethynyl-phenyl)amine], for which the solubility in data set [7] (read-out: solubility in water) came to 102 µg/mL (≈ 259 µM).

`C#Cc1cccc(Nc2ncnc3cc(OCCOC)c(OCCOC)cc23)c1` [“C” form, [6,7-Bis(2-methoxy-ethoxy)-quinazolin-4-yl]-(3-ethynyl-phenyl)amine]: the solubility in data set [7] (read-out: solubility) was determined as 28 µg/mL (≈ 71.2 µM).

Values taken from patent US9457095B2, “Pharmaceutical compositions providing enhanced drug concentrations” (Bend Research, Inc., priority 1999, dated 2016).
